From ChEMBL document CHEMBL1130721, “Design and synthesis of novel conformationally restricted HIV protease inhibitors” (Bioorg Med Chem Lett, 1998)

target: Human immunodeficiency virus type 1 protease (Human immunodeficiency virus 1, UniProt Q72874); assay: Compound was assayed for inhibition against HIV protease activity

| SMILES | Ki |
| --- | --- |
| COc1ccc(S(=O)(=O)N(CC2CCCC2)C[C@@H](O)CN2C(=O)N(Cc3ccccc3)C[C@@H]2Cc2ccccc2)cc1 | 15 nM |
| COc1ccc(S(=O)(=O)N(CC2CCCC2)C[C@@H](O)CN2C(=O)OC[C@@H]2Cc2ccccc2)cc1 | 1500 nM |
| COc1ccc(S(=O)(=O)N(CC2CCCC2)C[C@@H](O)CN2C(=O)COC[C@@H]2Cc2ccccc2)cc1 | 1000 nM |
| COc1ccc(S(=O)(=O)N(CC2CCCC2)C[C@@H](O)CN2C(=O)[C@@H](Cc3ccccc3)C[C@@H]2Cc2ccccc2)cc1 | 0.5 nM |
| COc1ccc(S(=O)(=O)N(CC2CCCC2)C[C@@H](O)CN2C(=O)CNC[C@@H]2Cc2ccccc2)cc1 | 3000 nM |
| COc1ccc(S(=O)(=O)N(CC2CCCC2)C[C@@H](O)CN2C(=O)C3(CCCCC3)NC[C@@H]2Cc2ccccc2)cc1 | 17 nM |
